For 1 compound, Km results are on record in PMC6337169, “Catechol 1,2-Dioxygenase is an Analogue of Homogentisate 1,2-Dioxygenase in Pseudomonas chlororaphis Strain UFB2” (International Journal of Molecular Sciences, 2018).

For the assay, the system named is T1, catechol 1,2-dioxygenase (C12O) from PcUFB2; identified by ES-MS as homogentisate 1,2-dioxygenase (H12D).
T1 construct: gene hmgA; native purification from UFB2 cells grown on phenol (ANX anion exchange, Sephacryl HR100); 35 kDa on SDS-PAGE
The assay can be described thus: UV spectrophotometry, cis,cis-muconic acid at […] nm; Lineweaver-Burk / Michaelis-Menten fit. It counts as biochemical, Pseudomonas chlororaphis. The settings on record: 50 mM sodium phosphate pH 8, 30 °C, 30 min, 0-500 µM catechol.

With `Oc1ccccc1O` [catechol], the Km turned out to be 35.8 µM.
